Measured values as given in patent US20230211023A1, “REPORTER SYSTEM FOR RADIONUCLIDE IMAGING” (Erasmus University Medical Center Rotterdam, priority 2020, published 2023).

What was measured:
LgBiT = LgBiT (Oplophorus gracilirostris, UniProt Q9GV45, A31E/A60N/A81I/D135N/F58L/F95D/G42A/G62A/G78A/G94A/G98A/H120P/I103V/I117V/I134L/K70R/L176M/L54V/L73R/L99Q/M102E/N171T/P142E/Q151K/Q38E/Q45L/V71I/Y165I); conditions: Dixon et al., 2016; read-out: Kd for binding to LgBiT / NLuc; cited from earlier work
LgBiT, sequence (Q9GV45 other isoform, or with tags, fused parts or gaps with the stated changes): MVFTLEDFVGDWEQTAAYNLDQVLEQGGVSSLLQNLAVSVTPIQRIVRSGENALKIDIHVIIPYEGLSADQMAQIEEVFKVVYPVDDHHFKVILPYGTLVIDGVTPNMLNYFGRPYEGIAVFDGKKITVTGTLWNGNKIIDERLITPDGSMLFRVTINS

PC3-TMLgBiT tumors = experiment: BL and dynamic SPECT/CT imaging of mice bearing PC3-TMLgBiT tumors (FIG. 7); assay type: in vivo, mouse; conditions: dynamic SPECT scan 1 hour after injection of 0,13 nM
PC3-TMLgBiT tumors, sequence (as listed by the source): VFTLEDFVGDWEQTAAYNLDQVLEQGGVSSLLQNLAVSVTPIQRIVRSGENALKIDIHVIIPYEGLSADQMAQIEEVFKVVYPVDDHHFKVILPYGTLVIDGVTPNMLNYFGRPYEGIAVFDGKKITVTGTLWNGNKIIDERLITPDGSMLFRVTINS
Description: For these experiments, eight-week-old nude BALB/C male mice (n=12) were injected with 5x10^6 PC-3-TM-LgBiT expressing cells (n=8). Cells were prepared for injections in PBS (Sigma-Aldrich) and matrigel (Corning) solution with a 50:50 ratio and a final injectable volume of 50 µL. Tumors were left to grow approximately 3-4 weeks post tumor cell implantation. To determine the functionality of the imaging system, a dynamic whole body SPECT/CT scan (VECT/CT Milabs) was performed. Mice were anesthetized using 1-2% isoflurane/O2 and the body temperature was maintained at 37° C. during the time of imaging (1 h) by using a heated bed aperture. The 1-hour dynamic SPECT/CT scan was performed immediately after tail vein injection of [^111In]-DOTA-6ahx-HiBiT for the PC-3 tumor model, (20 MBq labeled to 0.13 nmol in 200 µL PBS). […] Dynamic scans were obtained over a total duration of 1 h with 30 time frames, directly after injection of [^111In]-DOTA-6ahx-HiBiT. Acquired images were reconstructed using SR-OSEM with 9 iterations and 128 subsets on a 36 × 36 × 35 mm matrix with 0.80 × 0.80 mm isotropic voxels.

[1] = test system: cells expressing the reporter gene TMLgBiT; experiment: Binding of radiolabelled peptide to live cells expressing TMLgBiT, gamma counter; assay type: cell-based; conditions: 1 nM peptide, 20,000 cells/well, washed three times
cells expressing the reporter gene TMLgBiT, sequence (as listed by the source): as above
Description: The [^111In]-DOTA-6ahx-HiBiT peptide (1 nM) is added to cells expressing the reporter gene TMLgBiT and cells not expressing TMLgBiT are used as negative control (20,000 cells/well). Cells are washed three times and radioactivity measured at a gamma counter. A clear difference in radioactive signal (2000 fold) resulted between TMLgBiT expressing cells and cells non expressing the reporter gene. In FIG. 3, the radiation (in CPM, measured using a gamma counter) of cells expressing TMLgBiT and control cells after addition of […] of radioactive [^111In]-DOTA-6ahx-HiBiT peptide is provided.

[2] = test system: subcutaneously injected TMLgBiT expressing cells; experiment: SPECT imaging of mouse injected subcutaneously with TMLgBiT expressing cells; assay type: in vivo; conditions: 1 hour after injection of peptide, 20 MBq
subcutaneously injected TMLgBiT expressing cells, sequence (as listed by the source): as above

Row | Substance | Kd (LgBiT) [nM] | SPECT signal from tumor (PC3-TMLgBiT tumors) | difference in radioactive signal between TMLgBiT expressing cells and cells not expressing the reporter gene [1] [fold] | SPECT detection of TMLgBiT expressing cells in vivo [2] | SPECT detection of TMLgBiT expressing cells in vivo ([2]; listed as 111In -DOTA-6ax-HiBit) | SPECT detection of TMLgBiT expressing cells in vivo ([2]; listed as radiolabeled HiBiT peptide)
1 | NVSGWRLFKKISN [NLpep78] | 3.4 |  |  |  |  | 
2 | NVTGYRLFKKISN [NLpep79] | 8.5 |  |  |  |  | 
3 | [^111In]-DOTA-6ahx-HiBiT: DOTA-6ahx-HiBiT radiolabelled with indium-111 |  | specific signal from tumor is visible | 2000 | can be specifically detected | could be detected in vivo | High specific signal is detected
